Measurements: patent US20230276804A1, “A PESTICIDALLY ACTIVE MIXTURE COMPRISING PYRAZOLOPYRIDINE ANTHRANILAMIDE COMPOUND, OXIDES OR SALTS THEREOF” (priority 2020, published 2023)
Values joined by “and” are separate entries in the source; they are usually repeats but may differ in a detail not shown here. Equal values may be shown once.

Assays:
Assay type in all cases: in vivo
Pyricularia oryzae = settings: single compound, 0.05 ppm, preventive, rice
Spodoptera litura = experiment: Diet incorporation method against Spodoptera litura (Example B); settings: single compound, 96 h
Experimental: The diet incorporation method was used, in which semi-synthetic diet was incorporated into the test solution consisting either of the single compound or respective compound combinations, when the temperature was approximately 50° C. in the bioassay containers, then stirred thoroughly for proper mixing and allowed to cool for 30 min. The solidified diet was cut into equal pieces, and then each piece was transferred into one cell of the bio-assay trays. A single starved third instar larva was released into each of these cells of the bio-assay trays and the tray was covered with a lid. The bio-assay trays were kept under laboratory conditions at a temperature of 25° C. and relative humidity of 70%. Observations on dead, moribund and live larvae were recorded 96 h after the release. Percent mortality was calculated by combining dead and moribund larvae and comparing the result with the one of the untreated control. The results are shown for the compound of formula (I-III) in Table B.

Helicoverpa armigera = experiment: Diet incorporation method against Helicoverpa armigera (Example A); settings: single compound, 96 h
Experimental: The diet incorporation method was used, in which semi-synthetic diet was incorporated into the test solutions consisting either of the single compounds or respective compound combinations, when the temperature was approximately 50° C. in the bio-assay containers, then stirred thoroughly for proper mixing and allowed to cool for 30 min. The solidified diet was cut into equal pieces, and then each piece was transferred into one cell of a bio-assay tray. A single starved third instar larva was released into each of these cells of the bio-assay trays and the tray was covered with a lid. The bio-assay trays were kept under laboratory conditions at a temperature of 25° C. and relative humidity of 70%. Observations on dead, moribund and live larvae were recorded 96 h after the release of the larvae. Percent mortality was calculated by combining dead and moribund larvae and comparing the result to the one of the untreated control. The results are shown for the compound of formula (I-III) in Table A.

Erysiphe cichoracearum = experiment: Preventive glasshouse test against Erysiphe cichoracearum in cucumber (Example K); settings: single compound
Experimental: The single compounds or the respective compound combinations were dissolved in 2% dimethyl sulfoxide/acetone and then mixed with water containing emulsifier to a calibrated spray volume of 50 mL. The test solutions were poured into spray bottles for further applications.
(§1) To test the preventive activity of compounds, healthy young cucumber plants, raised in the greenhouse, were sprayed with the active compound preparation at the stated application rates inside the spray cabinets using hollow cone nozzles. One day after treatment, the plants were inoculated with a conidial suspension containing 2×10^5 Erysiphe cichoracearum inoculum. The inoculated plants were then kept in a greenhouse chamber at a temperature of 22-24° C. and 50-60% relative humidity for disease expression.
A visual assessment of the performance of the compounds and the respective compound combinations was carried out by rating the disease severity (0-100% scale) on treated plants 3, 7, 10 and 15 days after application. Efficacy (% control) of the single compounds or compound combinations was calculated by comparing the disease rating in the treatment with the one of the untreated control. The compounds were also assessed for their plant compatibility by recording symptoms like necrosis, chlorosis and stunting. The results have been described for the compound of formula (I-III) in Table K.

Alternaria solani = experiment: Preventive glasshouse test against Alternaria solani in tomato (Example G); settings: single compound
Experimental: (§2) The single compounds or respective compound combinations were dissolved in 2% dimethyl sulfoxide/acetone and then mixed with water containing emulsifier to a calibrated spray volume of 50 mL. The test solutions were poured into spray bottles for further applications.
as §1, with “activity,” for “activity of compounds,”, “tomato” for “cucumber”, “spore” for “conidial”, “0.24×10^6 Alternaria solani inoculum and 2% Malt.” for “2×10^5 Erysiphe cichoracearum inoculum.”, “90-95%” for “50-60%”
(§3) A visual assessment of the performance of the single compounds or compound combinations was carried out by rating the disease severity (0-100% scale) on treated plants 3, 7, 10 and 15 days after application. Efficacy (% control) of the single compounds and mixtures was calculated by comparing the disease rating in the treatment with the one of the untreated control. The compounds were also assessed for their plant compatibility by recording symptoms like necrosis, chlorosis and stunting. The results have been described for the compound of formula (I-III) in Table G.

Septoria nodorum = experiment: Preventive glasshouse test against Parastagonospora nodorum/Septoria nodorum/Stagnospora nodorum in wheat (Example J); settings: single compound
Experimental: as §2
To test the preventive activity of compounds, healthy young wheat plants, raised in the greenhouse, were sprayed with the active compound preparation at the stated application rates inside the spray cabinets using hollow cone nozzles. One day after treatment, the plants were inoculated with a spore suspension containing 2.8×10^6 Stagnospora nodorum inoculum.
The inoculated plants were then kept in a greenhouse chamber at 22-25° C. temperature and 90-100% relative humidity for disease expression.
as §3, with “J.” for “G.”

Phakopsora pachyrhizi = experiment: Preventive glasshouse test against Phakopsora pachyrhizi in soybean (Example H); settings: single compound
Experimental: The single compounds or the respective compound combinations were dissolved in 2% dimethyl sulfoxide/acetone and then mixed with water containing an emulsifier to a calibrated spray volume of 50 ml. The test solutions were poured into spray bottles for further applications.
as §1, with “Soybean” for “cucumber”, “a” for “a conidial”, “Phakopsora pachyrhizi conidia.” for “Erysiphe cichoracearum inoculum.”, “80-90%” for “50-60%”
A visual assessment of the performance of the single compounds and respective compound combinations was carried out by rating the disease severity (0-100% scale) on treated plants 3, 7, 10 and 15 days after application. Efficacy (% control) of the compounds was calculated by comparing the disease rating in the treatment with the one of the untreated control. The compounds were also assessed for their plant compatibility by recording symptoms like necrosis, chlorosis and stunting. The results have been described for the compound of formula (I-III) in Table H.

[1] = Spodoptera litura, 100 ppm, read-out: Observed Efficacy (%)
[2] = Spodoptera litura, 200 ppm, read-out: Observed Efficacy (%)
[3] = Helicoverpa armigera, 100 ppm, read-out: Observed Efficacy (%)

CO/C=C(/C(=O)OC)c1ccccc1Oc1cc(Oc2ccccc2C#N)ncn1 [Azoxystrobin]
Observed Efficacy (%) (Pyricularia oryzae): 30% | Observed Efficacy (%) (Spodoptera litura; 100 ppm): 0% | Observed Efficacy (%) (Spodoptera litura; 500 ppm): 0% | Observed Efficacy (%) (Helicoverpa armigera; 100 ppm): 0% | Observed Efficacy (%) (Helicoverpa armigera; 500 ppm): 0% | Observed Efficacy (%) (Erysiphe cichoracearum; Conc. 0.05 ppm): 26% | Observed Efficacy (%) (Erysiphe cichoracearum; Conc. 0.1 ppm): 43% | Observed Efficacy (%) (Alternaria solani; 0.05 ppm): 26% | Observed Efficacy (%) (Alternaria solani; 0.1 ppm): 40%

O=C(NCCc1ncc(C(F)(F)F)cc1Cl)c1ccccc1C(F)(F)F [Fluopyram]
pest or weed control at 100 ppm (Spodoptera litura; [1]): 0% | Observed Efficacy (%) (Septoria nodorum; 10 ppm): 25% | pest or weed control at 50 ppm (Helicoverpa armigera; Helicoverpa armigera, 50 ppm, read-out: Observed Efficacy (%)): 0% | Observed Efficacy (%) (Alternaria solani; 10 ppm): 67%

Cn1cc(C(=O)Nc2ccccc2-c2cc(F)c(F)c(F)c2)c(C(F)F)n1 [Fluxapyroxad]
Observed Efficacy (%) (Spodoptera litura; 100 ppm): 0% | Observed Efficacy (%) (Spodoptera litura; 200 ppm): 0% | Observed Efficacy (%) (Spodoptera litura; 500 ppm): 0% | Observed Efficacy (%) (Septoria nodorum; 0.05 ppm): 12% | Observed Efficacy (%) (Septoria nodorum; 0.1 ppm): 29% | Observed Efficacy (%) (Erysiphe cichoracearum; Conc. 0.05 ppm): 29% | Observed Efficacy (%) (Alternaria solani; 0.05 ppm): 14% | Observed Efficacy (%) (Alternaria solani; 0.1 ppm): 26%

N#Cc1ccccc1NC(=O)c1snc(Cl)c1Cl [Isotianil]
Observed Efficacy (%) (Phakopsora pachyrhizi; 10.0 ppm): 31% | Observed Efficacy (%) (Phakopsora pachyrhizi; 50.0 ppm): 41% | Observed Efficacy (%) (Spodoptera litura; 100 ppm): 0% | Observed Efficacy (%) (Spodoptera litura; 200 ppm): 0% | Observed Efficacy (%) (Helicoverpa armigera; 100 ppm): 0% | Observed Efficacy (%) (Helicoverpa armigera; 200 ppm): 25% | Observed Efficacy (%) (Erysiphe cichoracearum; Conc. 10 ppm): 51% | Observed Efficacy (%) (Erysiphe cichoracearum; Conc. 50 ppm): 57%

C=CCOC1=NS(=O)(=O)c2ccccc21 [Probenazole]
Observed Efficacy (%) (Phakopsora pachyrhizi; 2.0 ppm): 22% | Observed Efficacy (%) (Phakopsora pachyrhizi; 10.0 ppm): 28% | pest or weed control at 100 ppm (Spodoptera litura; [1]): 12.5% | pest or weed control at 200 ppm (Spodoptera litura; [2]): 0% | pest or weed control at 100 ppm (Helicoverpa armigera; [3]): 0% | Observed Efficacy (%) (Erysiphe cichoracearum; Conc. 2 ppm): 15% and 16% | Observed Efficacy (%) (Erysiphe cichoracearum; Conc. 10 ppm): 22%

COC(=O)N(OC)c1ccccc1COc1ccn(-c2ccc(Cl)cc2)n1 [Pyraclostrobin]
Observed Efficacy (%) (Phakopsora pachyrhizi; 0.05 ppm): 39% | pest or weed control at 100 ppm (Spodoptera litura; [1]): 12.5% | pest or weed control at 200 ppm (Spodoptera litura; [2]): 12.5% | pest or weed control at 500 ppm (Spodoptera litura; Spodoptera litura, 500 ppm, read-out: Observed Efficacy (%)): 12.5% | pest or weed control at 100 ppm (Helicoverpa armigera; [3]): 0% | Observed Efficacy (%) (Erysiphe cichoracearum; Conc. 0.05 ppm): 29% | Observed Efficacy (%) (Alternaria solani; 0.05 ppm): 26% | Observed Efficacy (%) (Alternaria solani; 0.1 ppm): 26%
